# Results reported in patent US20050137522A1, “System for infusing insulin to a subject to improve impaired hepatic glucose processing” (priority 2003, published 2005).
# “Also recorded” adds a separate entry of the source.
# Key:
# Type in all cases: in vivo, human
# [1] = system: type 1 DM patients with nephropathy; experiment: 18-month multi-center, prospective, controlled study of CIIIT on progression of diabetic nephropathy
# Method: A study was conducted to assess the effects of Chronic Intermittent Intravenous Insulin Therapy (CIIIT) on the progression of diabetic nephropathy in patients with type 1 diabetes mellitus (DM). This 18-month multi-center, prospective, controlled study involved 49 type 1 DM patients with nephropathy who were following the Diabetes Control and Complications Trial (DCCT) intensive therapy (IT) regimen. Of these, 26 patients formed the control group C, which continued on IT, while 23 patients formed the treatment group (T) and underwent, in addition to IT, weekly CIIIT. […] For all of the above listed examples, after the initial few days of treatment, the patients underwent treatment once a week, each treatment day consisting of three infusions of insulin accompanied by ingestion of carbohydrates. The infusion device used to infuse the insulin was the BIONICA MD-110 pump. Typically there were ten pulses given over a period of one hour, and a rest period of one hour was taken between infusions of insulin. The form in which the carbohydrates were ingested changed from time to time and included eating foods of high glycemic index including but not limited to bread and cake. The patients' circulating glucose was measured once every thirty minutes by the finger stick method currently used by most diabetic patients. […]
# [2] = system: diabetic patients with neuropathy; experiment: Case reports: diabetic neuropathy treated with the subject method
# Source text: A middle-aged person with Type 1 diabetes for more than 22 years suffered from polyneuropathy. They had generalized pain and was unable to walk or even wear stockings because of the pain.
# A middle-aged person with Type 1 diabetes for more than 30 years had severe peripheral neuropathy, was in constant pain below the knees and had difficulty sleeping at night. […] They have been using the treatment for eight years.
# An elder type 2 diabetic patient had severe painful peripheral neuropathy to the point that they were unable to walk and used a wheelchair. […] Because of financial reasons, they stopped the therapy. As a result, the neuropathy returned, and they returned to using a wheelchair.
# A middle-aged type 1 diabetic patient had severe neuropathy. They were a parent of two children who was bed-ridden with autonomic neuropathy before using the subject method two years ago. Their muscles had atrophied, they could not digest their food, they had been told that their nerves were dying inside them as a result of their diabetes. They stated that if they had not have two children, they would have taken their life. They had to quit their job, went on disability and was in an out of the hospital very often. They had welts on their head causing hair loss. They had no sensation in their feet, they had constant nausea, and they couldn't sleep at night because of the pain. They had insulin absorption problems and tried all different ways to improve the absorption of insulin into their body. For a number of years they injected themself intramuscularly because they felt that they obtained the best absorption of insulin that way. […] They have not been in the hospital since. […]
# (§1) For all of the above listed examples, after the initial few days of treatment, the patients underwent treatment once a week, each treatment day consisting of three infusions of insulin accompanied by ingestion of carbohydrates. […] The patients' circulating glucose was measured once every thirty minutes by the finger stick method currently used by most diabetic patients. […]
# [3] = system: diabetic patients with heart disease; experiment: Case reports: diabetic heart disease treated with the subject method
# Source text: A middle-aged person with type 2 diabetes for 17 years was suffering from severe dilated cardiomyopathy (ejection fraction 14-19%). They were placed on the list to receive a heart transplant prior to starting treatment with the subject method. […] The patient has been receiving treatment for 10 years and is still off the heart transplant list. Their ejection fraction is currently 29-32%.
# A middle-aged type 2 diabetic patient had severe heart disease including congestive heart failure and severe artereosclerotic heart disease. The patient was scheduled for heart surgery but because of their poor condition, surgeons refused to operate.
# An older type 1 diabetic patient who was diabetic was scheduled for a coronary artery by-pass graft to correct their diabetes related heart disease. The surgeons were reluctant to operate in the condition they were in because of their advanced diabetes related arteriosclerosis. They were scheduled for a single vessel graft. […] They continuing using the subject method for several years after the surgery with no further deterioration in their diabetes related heart disease.
# (§2) For all of the above listed examples, after the initial few days of treatment, the patients underwent treatment once a week, each treatment day consisting of three infusions of insulin accompanied by ingestion of carbohydrates. The infusion device used to infuse the insulin was the BIONICA MD-110 pump. Typically there were ten pulses given over a period of one hour, and a rest period of one hour was taken between infusions of insulin. The form in which the carbohydrates were ingested changed from time to time and included eating foods of high glycemic index including but not limited to bread and cake. The patients' circulating glucose was measured once every thirty minutes by the finger stick method currently used by most diabetic patients. […] Table 1 below summarizes by the above examples the number of units of insulin per pulse administered and the amount of glucose ingested for each series of pulses: […]
# [4] = system: diabetic patients with retinopathy; experiment: Case reports: retinopathy treated with the subject method
# Source text: A middle-aged person with type 1 diabetes for 38 years suffered from macular degeneration (retinopathy). They were unable to drive at night. […] The patient has been receiving treatment for 4 years.
# A middle-aged type 2 diabetic patient had proliferative diabetic retinopathy with severe bleeding. Multiple photocoagulation scars made additional photocoagulation impossible. […] The patient has been using the subject method for 5 years, and they have had no further bleeding of the retina and no further photocoagulation.
# (§3) For all of the above listed examples, after the initial few days of treatment, the patients underwent treatment once a week, each treatment day consisting of three infusions of insulin accompanied by ingestion of carbohydrates. The infusion device used to infuse the insulin was the BIONICA MD-110 pump. Typically there were ten pulses given over a period of one hour, and a rest period of one hour was taken between infusions of insulin. The form in which the carbohydrates were ingested changed from time to time and included eating foods of high glycemic index including but not limited to bread and cake. The patients' circulating glucose was measured once every thirty minutes by the finger stick method currently used by most diabetic patients. […]
# [5] = system: type 2 diabetic patient with diabetes related kidney disease; experiment: Case report: diabetes related kidney disease (proteinuria) treated with the subject method; conditions: before treatment 1500 milligrams of protein during 24 hours, rising 500 milligrams/24 hours/year; 5 years of treatment
# Method: An older type 2 diabetic was exercising and had excellent circulating glucose control under intense insulin therapy including 3-4 injections per day of subcutaneous insulin. Even so, their diabetes related kidney disease had progressed to the point where they were discharging 1500 milligrams of protein during a 24-hour period and the rate of increase was 500 milligrams/24 hours/year. After using the subject method, the patient's proteinuria was reduced to 600-800 milligrams/24 hours. They have been using the method for 5 years.
# as §3
# [6] = system: type 2 diabetic male suffering with autonomic neuropathy; experiment: Case report: elevated blood pressure with autonomic neuropathy treated with the subject method; conditions: before treatment 200/120 despite intensive insulin therapy; 5 years of treatment
# Source text: An older type 2 diabetic […] suffering with autonomic neuropathy had very elevated blood pressure readings of 200/120 despite a rigorous program to regulate their circulating glucose using intensive insulin therapy of 3 to 4 subcutaneous insulin injections daily. As a result of using the subject method, their blood pressure decreased to 120/80. They have been using the method for 5 years.
# as §2
# [7] = system: diabetic patients with leg ulcers; experiment: Case reports: diabetes related leg ulcers treated with the subject method; conditions: ulcers not responding to any available therapy, Examples 10 and 11; listed as subject method
# Source text: An older type 2 diabetic had one amputated leg as a result of diabetes related ulcers on that leg. They had developed ulcers on the other leg that would not respond to any available therapy and was in danger of losing the other leg to amputation. […] This patient used the subject method for several more years, and no additional ulcers formed.
# A middle-aged type 1 diabetic patient had developed severe ulcers on both legs, which would not heal with any available treatment. […] The patient has been using the subject method now for 13 years.
# as §3
# [8] = system: patients suffering from senile dementia; experiment: Senile dementia in patients treated with Hepatic Activation / the present invention; conditions: diabetic patients with senile dementia
# Source text: On many occasions patients who have been diabetics as well as having dementia have been treated with the method of the current invention. Dementia appears to be related to poor metabolism of glucose in the brain, which may well be the result of constricted flow of blood. This poor metabolism is at least in part the cause of the dementia.
# A diabetic who was suffering from advanced senile dementia was placed in a nursing home because of excessive confusion, weakness, disorientation and lack of memory. Because the nursing home was not keeping up the strict four shot regimen needed by the patient for their diabetic blood sugar control, the patient's children removed the patient from the nursing home. The attending doctor recommended Hepatic Activation. Once the patient was activated, they returned to a totally independent living style.
# as §1, with “carbohydrates. The infusion device used to infuse the insulin was the BIONICA MD-110 pump.” for “carbohydrates.”
# [9] = Circulating glucose by finger stick during insulin pulse treatments; conditions: during the first treatment; all examples; finger stick every thirty minutes
# Source text: as §2
# [10] = type 1 patient with severe autonomic neuropathy, Example 14
substance,measurement,setting,value
insulin [CIIIT],progression of diabetic nephropathy,[1]; CIIIT added to IT in type 1 DM patients with overt nephropathy,markedly reduce the progression of diabetic nephropathy
same,rate of CrCl decline,"[1]; type 1 DM patients with nephropathy, 18 months, T group (weekly CIIIT added to IT, 23 patients) vs C group (IT alone, 26 patients), P=0.0343",2.21±1.62 ml/min/yr
same,neuropathic pain after treatment,"[2]; single patients with polyneuropathy / peripheral neuropathy, listed as subject method",the pain has been reduced to the point where the person enjoys rigorous exercise; also recorded: no longer takes pain medication and has no twinges of pain in their legs; also recorded: the pain had subsided to the point where they no longer used a wheelchair
same,gastroparesis,[2]; [10],Her gastroparesis was reversed
same,numbness in legs,[2]; [10],The numbness in their legs has gone away
same,postoperative recovery,"[3]; after by-pass surgery, Examples 6 and 8, listed as subject method",normal postoperative recovery
same,insulin intake,"[3]; same patient, Example 4, before treatment 150 units a day",24-26 units/day
same,cardiac condition / need or fitness for heart surgery,"[3]; single patients, Examples 4, 6, 8, listed as subject method",no longer required a heart transplant; also recorded: could withstand 4-vessel by-pass surgery; also recorded: their condition improved to the point where the doctors performed two instead of one grafts
same,ejection fraction,"[3]; type 2 diabetic patient, severe dilated cardiomyopathy, before treatment 14-19%, after 10 years of treatment",29-32%
same,eyesight,"[4]; type 1 person, macular degeneration (retinopathy), unable to drive at night before treatment, 4 years of treatment",eyesight improved to the point where night driving was no longer a concern
same,retinal bleeding,"[4]; type 2 male, proliferative diabetic retinopathy with severe bleeding, 5 years of treatment","the bleeding stopped, and there was no further deterioration of the retina"
same,proteinuria,[5],600-800 milligrams/24 hours
same,blood pressure,[6],120/80
same,leg ulcers,[7],the ulcers on their second leg healed; also recorded: the ulcers healed and have never returned
same,senile dementia symptoms,[8]; listed as Hepatic Activation,"significant improvement in their motor skills, memory, and cognitive function"
same,senile dementia symptoms,[8]; listed as present invention,"clearly shown improvement in confusion, weakness, disorientation, cognitive function and lack of memory"
same,rise of circulating glucose levels,[9],100 to 150 mg/dL
